Experimental data: PMC11502128 (Journal of Lipids, 2024)
Where two headings read alike, the source gives them in different places.

Columns and labels:
[1] = biological target: T1, porcine PNLIP (pancreatic lipase) (Sus scrofa, UniProt P00591); test: PNLIP inhibition and enzyme kinetics with p-nitrophenyl palmitate; assay type: biochemical; details: for Pancreatic lipase Mode of inhibition: Lineweaver–Burk plot
T1 sequence (P00591 1-450): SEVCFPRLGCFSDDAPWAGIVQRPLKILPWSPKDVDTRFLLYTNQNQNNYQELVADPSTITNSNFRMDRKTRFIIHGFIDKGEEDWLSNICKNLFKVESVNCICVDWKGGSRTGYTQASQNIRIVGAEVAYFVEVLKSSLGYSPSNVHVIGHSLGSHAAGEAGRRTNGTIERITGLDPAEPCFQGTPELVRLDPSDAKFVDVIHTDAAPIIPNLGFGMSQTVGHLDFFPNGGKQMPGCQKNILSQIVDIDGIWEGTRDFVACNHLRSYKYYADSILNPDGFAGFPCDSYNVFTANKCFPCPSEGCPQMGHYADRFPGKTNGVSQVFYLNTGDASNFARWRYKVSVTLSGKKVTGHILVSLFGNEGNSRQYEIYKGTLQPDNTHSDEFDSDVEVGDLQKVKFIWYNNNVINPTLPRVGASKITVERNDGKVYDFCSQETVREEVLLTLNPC
Experimental: The PNLIP inhibitory activity of the compounds was tested using p-nitrophenyl palmitate (p-NPP) as an artificial substrate. […] The reaction was initiated by adding 10 mM p-NPP at 37°C for 20 min. Then, the enzyme activity was determined calorimetrically by measuring the release of p-nitrophenol measured at 405 nm using a SpectraMax paradigm microplate reader (Molecular Devices Inc, San Jose, California). The IC50 values were determined using nonlinear regression from the absorbance versus concentration curves.
The modes of enzyme inhibition were determined using the reaction protocol described above. While all the other parameters remained unchanged, the enzyme activity was measured at increasing substrate concentrations (2–10 mM) in the presence and absence of the test compound (inhibitor). Double reciprocal (Lineweaver–Burk) plots were generated and used to determine the inhibition types Km and Vmax. The inhibitory constants (Ki) of the test compounds were also calculated.

HepG2 cells [2] = test: Cell viability assessment (crystal violet), HepG2; assay type: cell-based, human; details: triterpenoids at 25 and 100 μM; lovastatin 50 μM
Experimental: The 3T3-L1 and HepG2 cells (at 70%–80% confluence) were seeded at concentrations of 0.2 × 10^4 per 100 μL and 5.0 × 10^4 per 100 μL, respectively, in a 96-well plate. […] Control cells were exposed to either 0.01% methanol (vehicle control) or sterile phosphate buffered saline (PBS) pH 7.4. Following the exposure, the cells were fixed with 20% formalin (final concentration 2% [v/v]) at 37°C for 30 min. The solution was discarded, and the plate was blotted dry. The cells were stained with the addition of 100 μL f CV (0.1% in 200 mM formic acid) to each well. After 30 min at room temperature, the dye solution was removed, and the plate was washed well with tap water and dried. The dye was then extracted from the stained cells with 100 μL of a 10% (v/v) acetic acid solution. The absorbance was measured at 630 nm, and the results were expressed as percentage cell viability relative to the control (cells treated with PBS).

[3] = tested on: differentiated 3T3-L1 adipocytes; test: Intracellular lipid accumulation in differentiated 3T3-L1 adipocytes (ORO staining); assay type: cell-based, Mouse; details: 100 μM, 3 days, differentiated 3T3-L1, relative to control
Experimental: (§1) The differentiation of 3T3-L1 cells was performed as described by Ibrahim et al. with slight modifications. The preadipocyte cells were seeded at a concentration of 0.2 × 10^4 per 100 μL into each of the wells of a 96-well plate and were grown at 37°C with 5% CO2 for 3 days, until confluent. On Day 4, differentiation was induced by replacing the medium with 100 μL Differentiation Medium 1 (DM1, DMEM supplemented with final concentrations of 10 μg/mL insulin, 0.5 mM isobutyl methylxanthine, 1 μM dexamethasone, and 2 μM rosiglitazone) for further 3 days. On Day 8, DM1 was replaced with DM2 (DMEM with only 10 μg/mL insulin) for 3 days. Finally, DM2 was replaced with only DMEM, and the cells were exposed to the different concentrations (1–100 μM) of the test compounds for a further 3 days. Control cells were exposed to either the vehicle control or sterile PBS.
The ORO staining technique was used to detect lipid droplets in both differentiated adipocytes and OA-exposed hepatocytes. […] The ORO dye was then extracted with 60% isopropanol, and the absorbance was measured at 405 nm. For the 3T3-L1 cells, the percentage of lipid accumulation was relative to the control cells (PBS-treated) cells, with 100% lipid formation, while for HepG2, the results were expressed as the percentage of lipid accumulation relative to cells exposed to OA.

[4] = tested on: differentiated 3T3-L1 adipocytes; test: Neutral lipid accumulation in differentiated 3T3-L1 adipocytes (NR staining); assay type: cell-based, Mouse; details: 100 μM, 3 days, differentiated 3T3-L1, relative to control
Experimental: as §1, with “Finally, DM2 was replaced with only DMEM, and the cells were exposed to the different concentrations (1–100 μM) of the test compounds for a further 3 days. Control cells were exposed to either the vehicle control or sterile PBS.” left out
With NR staining, the accumulation of neutral lipids was assessed in the differentiated 3T3-L1 cells and OA-induced lipid accumulation in HepG2 cells following treatment with the triterpenoids. […] Background fluorescence was measured at an excitation and an emission wavelength of 485 nm and 590 nm (Ex4850 and Em590), respectively. […] The dye was extracted from the stained cells with 100 μL PBS, and the fluorescence was measured again at Ex450 and Em590. The difference in fluorescence between the extracted dye and background fluorescence was calculated. The percentage of intracellular lipid accumulation relative to the untreated control cells was calculated.

HepG2 cells [5] = test: Oleic acid-induced hepatic lipid accumulation in HepG2 cells (ORO staining); assay type: cell-based, human; details: 100 μM, 48 h, HepG2 exposed to 1 mM oleic acid
Experimental: (§2) The HepG2 cells were seeded in a 96-well plate at a cell density of 5 × 10^4 and left to attach overnight. The cells were incubated at 37°C, 5% CO2 for 48 h, and 1 mM OA (final concentration) to stimulate lipid accumulation. […] Control cells were exposed to either the vehicle control or sterile PBS.
The ORO staining technique was used to detect lipid droplets in both differentiated adipocytes and OA-exposed hepatocytes. The cells were fixed with 2% (v/v) formaldehyde for 30 min at 37°C. The formaldehyde was then discarded, and the plates were air-dried. The fixed cells were stained with ORO staining solution (three parts of 0.5% ORO (w/v) in 60% isopropyl alcohol and two parts of water) for 1 h. After staining, the excess ORO was discarded, and the plates were rinsed with water and dried. Microscopic images were acquired with an Olympus microscope (Olympus, Tokyo, Japan). The ORO dye was then extracted with 60% isopropanol, and the absorbance was measured at 405 nm. For the 3T3-L1 cells, the percentage of lipid accumulation was relative to the control cells (PBS-treated) cells, with 100% lipid formation, while for HepG2, the results were expressed as the percentage of lipid accumulation relative to cells exposed to OA.

HepG2 cells [6] = test: Oleic acid-induced neutral lipid accumulation in HepG2 cells (NR staining); assay type: cell-based, human; details: 100 μM, 48 h, HepG2 exposed to 1 mM oleic acid
Experimental: as §2
With NR staining, the accumulation of neutral lipids was assessed in the differentiated 3T3-L1 cells and OA-induced lipid accumulation in HepG2 cells following treatment with the triterpenoids. The cells were washed with PBS and fixed with 4% formaldehyde for 1 h, and then the cells were stained with the NR staining solution (100 μM in 100% DMSO) in the dark for 3 h. Background fluorescence was measured at an excitation and an emission wavelength of 485 nm and 590 nm (Ex4850 and Em590), respectively. The dye solution was then discarded, the wells were then rinsed with PBS, and the plate was blotted dry. The dye was extracted from the stained cells with 100 μL PBS, and the fluorescence was measured again at Ex450 and Em590. The difference in fluorescence between the extracted dye and background fluorescence was calculated. The percentage of intracellular lipid accumulation relative to the untreated control cells was calculated.

PPARγ gene = test: qRT-PCR PPARγ mRNA expression in differentiated 3T3-L1 adipocytes; assay type: cell-based, Mouse; details: 100 μM, 3 days
Experimental: (§3) The mRNA expression of selected lipogenic and lipolytic genes was quantified using qRT–PCR following the established protocol as described by Ndlovu et al.. […] The RNA was extracted with the […] RNA extraction kit. The RNA was then converted into cDNA using an iScript cDNA Synthesis Kit from […] following the manufacturer's protocols. qRT–PCR analysis was performed using Bio-Rad CFX Maestro software. All mRNA expression levels were standardized to ensure consistency using glyceraldehyde 3-phosphate dehydrogenase (GAPDH) as a reference gene. The primers used were designed using the BLAST NCBI online server (https://www.ncbi.nlm.nih.gov/tools/primer-blast/). Data was expressed as fold change relative to the untreated control.

C/EBPα gene = test: qRT-PCR C/EBPα mRNA expression in differentiated 3T3-L1 adipocytes; assay type: cell-based, Mouse; details: 100 μM, 3 days
Experimental: as §3

HSL gene = test: qRT-PCR HSL mRNA expression in differentiated 3T3-L1 adipocytes; assay type: cell-based, Mouse; details: 100 μM, 3 days
Experimental: as §3

AMPK gene = test: qRT-PCR AMPK mRNA expression in differentiated 3T3-L1 adipocytes; assay type: cell-based, Mouse; details: 100 μM, 3 days, not significant versus control
Experimental: as §3

[7] = tested on: differentiated 3T3-L1 cells; test: Glycerol release from isoproterenol-stimulated differentiated adipocytes (lipolysis); assay type: cell-based, Mouse; details: 100 μM, 3 days, then 100 nM isoproterenol 3 h
Experimental: Subsequently, the cells were exposed to isoproterenol (final concentration of 100 nM) for 3 h to stimulate lipolysis. The glycerol levels released into the medium were used as a measure of lipolysis evaluated using a commercial lipolysis colorimetric assay kit (MAK211) according to the manufacturer's instructions. Cell viability of the lipolysis-induced adipocytes was determined with CV staining.

Row | SMILES | Pancreatic lipase Mode of inhibition [1] | Ki ([1]; Lineweaver–Burk, substrate 2–10 mM, mean ± SEM (n = 3), read-out: Pancreatic lipase Ki) [µM] | IC50 ([1]; porcine PNLIP, p-NPP substrate, pH 7.4, 37°C, mean ± SEM (n = 3), read-out: Pancreatic lipase IC50) [µM] | cytotoxicity in the HepG2 model (abstract) (HepG2 cells [2]) | decrease in lipid accumulation (ORO staining) [3] [%] | reduction in neutral lipid accumulation (NR staining) [4] [%] | reduction of OA-induced lipid accumulation (ORO staining) (HepG2 cells [5]) [%] | reduction in neutral lipid accumulation (NR staining) (HepG2 cells [6]) [%] | reduction of PPARγ gene expression (PPARγ gene) [%] | reduction of C/EBPα gene expression (C/EBPα gene) [%] | reduction of HSL gene expression (HSL gene) [%] | increase in the expression of the AMPK gene (AMPK gene) [%] | decrease in glycerol release [7] [%] | IC50 [1] [µM] | Ki [1] [µM]
1 | C/C(=C/CC[C@H](C(=O)O)C1CC[C@]2(C)C3=CCC4C(C)(C)[C@H](O)CC[C@]4(C)C3CC[C@@]12C)CO (stereo partly drawn) [ARM-2, 3α,26-dihydroxytirucalla-7,24-dien-21-oic acid] | Noncompetitive | 52.9 ± 7.19 | 35.8 ± 12.4 | lacked cytotoxicity | 22.21 | 19.27 | 31.56 | 40 | 59.30 | 55.65 | 60.38 | 39.10 | 36.47 |  | 
2 | CCCCCCCCCCC[C@@H](C[C@@H]1OC(=O)[C@H]1CCCCCC)OC(=O)[C@H](CC(C)C)NC=O [Orlistat, orlistat, reference compound] | Uncompetitive |  |  |  |  |  |  |  |  |  |  |  |  |  | 
3 | CC(C)=CCCC(C(=O)O)C1CCC2(C)C3CCC4C(C)(CCC(O)C4(C)C)C3=CCC12C (stereo not drawn) [RA-5, 3β-hydroxylanosta-9,24-dien-21-oic acid] | mixed type of inhibition |  |  | lacked cytotoxicity | 20.67 | 10.37 | 23.47 | 39 | 77.40 | 49.72 | 66.54 | 28.05 | 34.72 | 27.6 ± 8.51 | 28.7 ± 8.84
